Experimental data from paper PMC6397092 (Platelets, 2018).

Biological target: T1, PAR4 (protease-activated receptor 4) (Homo sapiens, UniProt Q96RI0)
T1 sequence (Q96RI0 48-385): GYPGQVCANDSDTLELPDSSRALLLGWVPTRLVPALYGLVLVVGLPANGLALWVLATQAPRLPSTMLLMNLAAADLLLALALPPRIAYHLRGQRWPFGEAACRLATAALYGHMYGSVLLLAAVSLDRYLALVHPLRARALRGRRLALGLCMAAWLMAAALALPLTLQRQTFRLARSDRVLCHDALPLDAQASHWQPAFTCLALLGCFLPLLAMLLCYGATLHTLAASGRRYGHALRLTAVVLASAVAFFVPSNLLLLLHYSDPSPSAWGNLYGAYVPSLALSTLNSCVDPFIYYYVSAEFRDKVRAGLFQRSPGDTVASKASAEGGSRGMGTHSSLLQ
Experiment: inhibition of human platelet activation by […] gamma-thrombin
Type: cell-based

IC50: 8.42 nM
Substance: VU0661245
